Results from PubChem BioAssay (NCI).
Several values for one entry are separate records, joined by “and”; a condition that tells them apart may be missing. Equal entries are not always repeated.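 96-well plates; 48 h exposure; 5 concentrations. Endpoints by linear interpolation between flanking doses. Not reached: highest tested concentration assigned. GI50: concentration for 50% inhibition of growth. TGI: concentration producing complete growth inhibition.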

Legend:
Assay in all cases: growth of human tumour cells (NCI), 48 h
A549 NSCLC = system: A549 NSCLC
BT-549 breast = system: BT-549 breast
CAKI-1 renal = system: CAKI-1 renal
DU-145 prostate = system: DU-145 prostate
OVCAR-3 ovarian = system: OVCAR-3 ovarian
OVCAR-8 ovarian = system: OVCAR-8 ovarian
SF-268 CNS = system: SF-268 CNS
SK-MEL-2 melanoma = system: SK-MEL-2 melanoma
SN12C renal = system: SN12C renal
TK-10 renal = system: TK-10 renal

Row | SMILES | GI50 (A549 NSCLC) [µM] | TGI (A549 NSCLC) | GI50 (BT-549 breast) [µM] | TGI (BT-549 breast) [µM] | GI50 (CAKI-1 renal) [µM] | TGI (CAKI-1 renal) | GI50 (DU-145 prostate) [µM] | TGI (DU-145 prostate) [µM] | GI50 (OVCAR-3 ovarian) [µM] | TGI (OVCAR-3 ovarian) | GI50 (OVCAR-8 ovarian) [µM] | TGI (OVCAR-8 ovarian) [µM] | GI50 (SF-268 CNS) [µM] | TGI (SF-268 CNS) [µM] | GI50 (SK-MEL-2 melanoma) [µM] | TGI (SK-MEL-2 melanoma) | GI50 (SN12C renal) | TGI (SN12C renal) | GI50 (TK-10 renal) [µM] | TGI (TK-10 renal) [µM]
1 | Nc1nc(/C=C\c2ccccc2)nc(N2CCN(c3ccccc3)CC2)n1 | 31.5 | > 100 µM | 45 | > 100 | 15.6 | 43.6 µM | 39.5 | > 100 | 28.2 | 57.5 µM | 35.4 | > 100 | 42.2 | > 100 | 32.5 | 91.7 µM | 18.2 µM | 38.6 µM | 28.4 | 81.1
2 | CCCCCCCCCCCCOC1C(CNC(=O)C2OC3OC(C)(C)OC3C2NC(=O)CN2CCN(c3ccc(OC)cc3)CC2)OC2OC(C)(C)OC21 (configuration not stated) | 3.18 | 18.2 µM | 6.19 | 17.4 | 12.1 | 24.5 µM | 4.56 | 15.6 | 4.01 | 14.5 µM | 3.91 | 12.9 | 3.12 | 11.5 | 11.7 | 23.9 µM | 3.41 µM | 11.7 µM | 3.96 | 13.4
3 | O=C(c1ccc(Cl)cc1)C(O)c1ccc(Cl)cc1 (configuration not stated) |  | > 100 µM |  | > 100 |  | > 100 µM |  | > 100 |  | > 100 µM |  | > 100 |  | > 100 |  | > 100 µM |  | > 100 µM |  | > 100
4 | CC(=O)NNc1nc(C)c(C(/C=C/c2ccccc2O)=N/N=C(N)N)s1 |  | > 100 µM |  | > 100 |  | > 100 µM |  | > 100 |  | > 100 µM |  | > 100 |  | > 100 |  | > 100 µM |  | > 100 µM |  | > 100
5 | Cc1cc(-c2cc(O)ccc2Cl)cc2nnc(Nc3ccc(OCCN4CCCC4)cc3)nc12 | 1.36 | 3.48 µM | 1.45 | 3.16 | 1.54 | 2.97 µM | 0.206 | 0.419 | 1.59 | 3.12 µM | 0.705 | 1.56 | 1.99 | 3.91 | 1.7 | 3.64 µM | 1.47 µM | 3.03 µM | 1.39 | 3
6 | C#CCN(c1ccc(C(=O)N[C@@H](CCC(=O)N[C@H](CCC(=O)O)C(=O)O)C(=O)O)cc1)C1CCc2cc3nc(CO)[nH]c(=O)c3cc21 (some centres not stated) | 5.41 | > 100 µM | 58 | > 100 | 6.13 | > 100 µM | 16.5 | > 100 | > 100 | > 100 µM | 5.81 | > 100 | 5.94 | > 100 | > 100 | > 100 µM | 6.78 µM | > 100 µM | > 100 | > 100
7 | CC[C@@H](C)/C=C(C)/C=C/C(=O)c1c(O)c(-c2ccc(O)cc2)cn(O)c1=O | 1.31 | 12 µM | 0.487 | 16.1 | 0.29 | 1.55 µM | 0.496 | 13.8 | 0.395 | 13 µM | 0.341 | 12 | 0.33 | 12.3 | 0.329 | 16.8 µM | 0.391 µM | 12.3 µM | 0.524 | 15.3
8 | COc1ccc(/C=C2/SC(Nc3nc(-c4nc(NC5=NC(=O)/C(=C\c6ccc(OC)cc6)S5)sc4C)c(C)s3)=NC2=O)cc1 | 1.14 | 17.2 µM | 2.23 | 22.2 | 0.368 | 3.16 µM | 2.43 | > 19.7 | 0.188 | 3.25 µM | 1.71 | 16.7 | 2.79 | > 33.8 | 15.2 | > 50 µM | 1.96 µM | 9.19 µM | 0.172 | 0.77
9 | O=C1C=CC(=O)c2c(O)c3c(c(O)c21)C[C@H](O)[C@H](O)[C@@H]3O |  | 9.39 µM |  | 2.81 |  | 4.38 µM |  | 6.87 |  | 3.88 µM |  | 6.59 |  | 8.02 |  | 3.43 µM |  | 3.82 µM |  | 3.27
10 | CCCCCC/C=C\CCCCCCCCCC1=C(CN2CCN(C)CC2)C(=O)C=C(OC)C1=O |  | 28.6 µM |  | 15.5 |  | 7.03 µM |  | 26.2 |  | 17.3 µM |  | 17 |  | 19.7 |  | 18.7 µM |  | 19.7 µM |  | 9.4
11 | Oc1c(Cl)cc(Cl)c2ccc(Cn3cc(-c4ccc(C(F)(F)F)cc4)nn3)nc12 | 16.5 | 38.6 µM | 1.94 | 5.22 | 1.25 | 2.97 µM | 1.7 | 3.33 | 1.33 | 2.74 µM | 2.75 | 11.5 | 4.64 | 20.1 | 2.67 | 7.65 µM | 2.91 µM | 11.6 µM | 1.95 | 4.22
12 | CC1NC(=O)C2=C1C(=O)NC(=O)C2 (configuration not stated) | > 100 | > 100 µM | > 100 | > 100 | > 100 | > 100 µM | > 100 | > 100 | > 100 | > 100 µM | > 100 | > 100 | > 100 | > 100 | > 100 | > 100 µM | > 100 µM | > 100 µM | > 100 | > 100
13 | CO[C@H]1CC(O[C@@H]2/C(C)=C/C[C@@H]3C[C@@H](C[C@]4(CC[C@H](C)[C@@H](C5CCCCC5)O4)O3)OC(=O)[C@@H]3C=C(C)/C(=N/O)[C@H]4OC/C(=C\C=C\[C@@H]2C)[C@]43O)O[C@@H](C)C1O (some centres not stated) | 0.935 | 2.66 µM | 1.17 | 3.41 | 1.14 | 3.32 µM | 0.833 | 1.62 | 0.864 | 1.62 µM | 0.962 | 2.41 | 0.982 | 2.45 | 1.18 | 2.68 µM | 0.889 µM | 1.85 µM | 1.13 | 2.71
14 | Cc1cc(C)c(-c2c(N)cc(Br)cc2Br)c(N)c1 | 5.62 | 19.6 µM | 5.76 | 18.2 | 3.83 | 19.1 µM | 4.33 | 16.4 | 3.09 | 8.74 µM | 10.2 | 31.7 | 7.86 | 21.5 | 3.95 | 14.1 µM | 7.41 µM | 21.9 µM | 7.17 | 20.5
15 | CC1=CC(C)(C)NN1C1=NS(=O)(=O)c2ccccc2N1C |  | > 100 µM |  | > 100 |  | > 100 µM |  | > 100 |  | > 100 µM |  | > 100 |  | > 100 |  | > 100 µM |  | > 100 µM |  | > 100
16 | CC(C)CCCCCCCCCCCCC(=O)NCC(=O)NC1C(O)C(O)C(Nc2ncnc3nc[nH]c23)OC1C(O)CO (configuration not stated) |  | 0.00787 µM and 0.0537 µM and 0.0327 µM | < 1e-05 |  | < 1e-05 | 0.0011 µM and 0.000619 µM | < 1e-05 |  |  | 0.00189 µM and 0.00279 µM and 0.00509 µM |  |  |  |  | < 1e-05 | 0.0117 µM and 0.0389 µM and 0.0107 µM | 0.00574 µM and 0.005 µM | 0.0729 µM and 0.0145 µM | < 1e-05 | 
17 | CCc1nc2ccc(N=Nc3c(O)ccc4ccccc34)cc2[nH]1 |  | 55.8 µM |  | 36.2 |  | 40.2 µM |  | 31.2 |  | 37.2 µM |  | 21.6 |  | 53.3 |  | 37.9 µM |  | 38.2 µM |  | 32.6
18 | Cc1cc(Nc2nc(N[C@@H](C)c3ncc(F)cn3)ncc2Cl)n[nH]1 | 29.5 | > 100 µM | 9.81 | > 100 | 17.5 | > 100 µM | 40.8 | > 100 | 59.1 | > 100 µM | 30.5 | > 100 | 18.2 | > 82.4 | 28.7 | 92.1 µM | 20.4 µM | > 100 µM | 30 | > 100
19 | Cc1cn(Cc2ccc(C34CC5CC(CC(C5)C3)C4)c(O)c2)c(=O)[nH]c1=O |  |  | 8.7 | 20.8 | 10.1 | 23.3 µM | 13.7 | 26.6 | 4.04 | 16.3 µM |  |  | 12.7 | 41.8 | 14.1 | 32.2 µM | 12.3 µM | 25.4 µM | 14.7 | 32.2
20 | CN1CCN(C(=O)COc2ccc(/C=C3\CC4C5CC=C6CC(Cl)CCC6(C)C5CCC4(C)C3=O)cc2)CC1 (configuration not stated) | > 100 | > 100 µM | 96.1 | > 100 | > 100 | > 100 µM | > 100 | > 100 | > 100 | > 100 µM | > 100 | > 100 | > 100 | > 100 | > 100 | > 100 µM | > 100 µM | > 100 µM | 27.4 | > 100
21 | CSc1nc2c(c(=O)n1C)CN(C1CCCCC1)C(=O)C(c1ccccc1)N2 (configuration not stated) | 38.4 | > 100 µM | 13.2 | 49.4 | 26.9 | > 100 µM | 64.4 | > 100 | 20.1 | 82 µM | 46.9 | > 100 | 25.3 | > 100 | 26.2 | > 100 µM | 36 µM | > 100 µM | 31.4 | > 100
22 | CCN(Cc1cccc(Cl)c1)c1ccc(CO)c(Cl)c1 | 2.47 | 17 µM | 11.5 | 24.3 | 0.724 | 10.1 µM | 11.6 | 24.8 | 0.835 | 5.29 µM | 10.5 | 23.3 | 13.8 | 28 | 3.86 | 20.8 µM | 11.9 µM | 27.3 µM | 0.0588 | 0.321
23 | CCCCCCCC/C=C/CCCCCCCC1=NC(C)(C)CN1CCO | 1.91 | 3.56 µM | 5.76 | 19.6 | 1.56 | 3.03 µM | 1.72 | 3.09 | 4.52 | 9 µM | 2.29 | 4.74 | 1.46 | 2.78 | 1.86 | 3.49 µM | 4.7 µM | 18 µM | 1.91 | 3.94
24 | C/C(=C(\c1ccc(OCCN2CCCCCC2)cc1)c1ccc(OC(=O)c2ccccc2)cc1)c1ccc(Cl)cc1 | 4.16 | 10.9 µM | 4.56 | 8.99 | 3.86 | 9.27 µM | 5.41 | 11.3 | 4.06 | 8.49 µM | 5.15 | 10.5 | 3.49 | 9.7 | 5.32 | 10.5 µM | 4.21 µM | 9.53 µM | 5.14 | 10.8
25 | COc1cc(C2c3cc4c(cc3C(OC(=O)C[n+]3ccccc3)C3COC(=O)C23)OCO4)cc(OC)c1OC (configuration not stated) | < 0.0197 | > 100 µM | < 0.01 | > 100 | < 0.0184 | > 100 µM | < 0.0184 | > 100 | < 0.016 | < 0.0255 µM | < 0.021 | > 100 | < 0.0208 | > 100 | < 0.01 | > 100 µM | < 0.0247 µM | > 100 µM | > 100 | > 100
26 | O=C(O)C1[O][Sb][O]C(C(=O)O)C1O (configuration not stated) | > 100 | > 100 µM | > 100 | > 100 | > 100 | > 100 µM | > 100 | > 100 | > 100 | > 100 µM | > 100 | > 100 | > 100 | > 100 | > 100 | > 100 µM | > 100 µM | > 100 µM | > 100 | > 100
